According to article PMC7419507, “In vitro Cas9-assisted editing of modular polyketide synthase genes to produce desired natural product derivatives” (Nature Communications, 2020):
Several values for one entry are separate records, joined by “and”; a condition that tells them apart may be missing. Identical values can stand only once.

Assays:
[1] = system: Jurkat, SKOV-3 and MESO-1 cells; assay: Cytotoxicity assay, statements for all tested cell lines together; format: cell-based; settings: Jurkat, SKOV-3 and MESO-1 cells, 72 h
Method in brief: (§1)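 Following 4 h attachment at 1000 cells/well, the three lines received serially halved compound doses (DMSO 0.5%) for 72 h at 37 °C under 5% CO2, with cell viability then determined by CellTiter-Glo.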

[2] = system: human ovarian adenocarcinoma SKOV-3 cells; assay: Cytotoxicity assay (CellTiter-Glo, 72 h), SKOV-3; format: cell-based; settings: raw replicate data
Method in brief: as §1

[3] = Cytotoxicity assay (CellTiter-Glo, 72 h), SKOV-3; format: cell-based, human; settings: human, raw replicate data, read-out: SKOV3 viability (%)
Method in brief: as §1

[4] = Cytotoxicity assay (CellTiter-Glo, 72 h), MESO-1; format: cell-based; settings: human, MESO-1 malignant pleural mesothelioma cells, raw replicate data, read-out: MESO1 viability (%)
Method in brief: as §1

CO[C@H]1C[C@@H]2CC[C@@H](C)[C@@](O)(O2)C(=O)C(=O)N2CCCC[C@H]2C(=O)O[C@H]([C@H](C)C[C@@H]2CC[C@@H](O)[C@H](OC)C2)CC(=O)[C@H](C)/C=C(\C)[C@@H](O)CC[C@H](C)/C=C/C=C/C=C/1C [Compound 7]
Effect on cell viability, in words [1]: slightly suppressed the cell viabilities
SKOV3 viability (%) ([2]; conc 9.53674e-5 uM): 108.9% and 101.6%
SKOV3 viability (%) ([2]; conc 0.000190735 uM): 101.5% and 97.4%
SKOV3 viability (%) ([2]; conc 0.00038147 uM): 103.2% and 103.5%
SKOV3 viability (%) ([2]; conc 0.000762939 uM): 102.5%
SKOV3 viability (%) ([2]; conc 0.00152588 uM): 105.1% and 100.3%
SKOV3 viability (%) ([2]; conc 0.00305176 uM): 94.9% and 97.9%
SKOV3 viability (%) ([2]; conc 0.00610352 uM): 104.9% and 101.4%
SKOV3 viability (%) ([2]; conc 0.012207 uM): 92.0% and 94.0%
SKOV3 viability (%) ([2]; conc 0.0244141 uM): 99.4% and 102.3%
SKOV3 viability (%) ([2]; conc 0.0488281 uM): 100.8% and 88.2%
SKOV3 viability (%) ([2]; conc 0.0976562 uM): 88.7% and 90.6%
SKOV3 viability (%) ([2]; conc 0.195312 uM): 66.8% and 68.9%
SKOV3 viability (%) ([2]; conc 0.390625 uM): 68.2% and 69.5%
SKOV3 viability (%) ([2]; conc 0.78125 uM): 60.2% and 57.4%
SKOV3 viability (%) ([2]; conc 1.5625 uM): 64.2% and 69.2%
SKOV3 viability (%) ([2]; conc 3.125 uM): 60.4% and 56.6%
SKOV3 viability (%) ([2]; conc 6.25 uM): 60.8% and 65.6%
SKOV3 viability (%) ([2]; conc 12.5 uM): 53.3% and 53.4%
SKOV3 viability (%) ([2]; conc 25 uM): 31.4% and 36.3%
SKOV3 viability (%) ([2]; conc 50 uM): 5.9% and 7.4%
viability at 72 h, 9.53674e-05 uM ([3]; SKOV-3 cells (ovarian adenocarcinoma), conc 9.53674e-5 uM): 101%
viability at 72 h, 0.000190735 uM ([3]; SKOV-3 cells (ovarian adenocarcinoma), conc 0.000190735 uM): 101%
viability at 72 h, 0.00038147 uM ([3]; SKOV-3 cells (ovarian adenocarcinoma), conc 0.00038147 uM): 98.2%
viability at 72 h, 0.000762939 uM ([3]; SKOV-3 cells (ovarian adenocarcinoma), conc 0.000762939 uM): 98.7%
viability at 72 h, 0.00152588 uM ([3]; SKOV-3 cells (ovarian adenocarcinoma), conc 0.00152588 uM): 101%
viability at 72 h, 0.00305176 uM ([3]; SKOV-3 cells (ovarian adenocarcinoma), conc 0.00305176 uM): 94.8%
viability at 72 h, 0.00610352 uM ([3]; SKOV-3 cells (ovarian adenocarcinoma), conc 0.00610352 uM): 98.4%
viability at 72 h, 0.012207 uM ([3]; SKOV-3 cells (ovarian adenocarcinoma), conc 0.012207 uM): 96.9%
viability at 72 h, 0.0244141 uM ([3]; SKOV-3 cells (ovarian adenocarcinoma), conc 0.0244141 uM): 94.4%
viability at 72 h, 0.0488281 uM ([3]; SKOV-3 cells (ovarian adenocarcinoma), conc 0.0488281 uM): 92.3%
viability at 72 h, 0.0976562 uM ([3]; SKOV-3 cells (ovarian adenocarcinoma), conc 0.0976562 uM): 88.5%
viability at 72 h, 0.195312 uM ([3]; SKOV-3 cells (ovarian adenocarcinoma), conc 0.195312 uM): 64.9%
viability at 72 h, 0.390625 uM ([3]; SKOV-3 cells (ovarian adenocarcinoma), conc 0.390625 uM): 75%
viability at 72 h, 12.5 uM ([3]; SKOV-3 cells (ovarian adenocarcinoma), conc 12.5 uM): 56.1%
viability at 72 h, 25 uM ([3]; SKOV-3 cells (ovarian adenocarcinoma), conc 25 uM): 30.8%
viability at 72 h, 50 uM ([3]; SKOV-3 cells (ovarian adenocarcinoma), conc 50 uM): 6.6%
viability at 72 h, 0.78125 uM ([3]; SKOV-3 ovarian adenocarcinoma cells, conc 0.78125 uM): 59.1%
viability at 72 h, 1.5625 uM ([3]; SKOV-3 ovarian adenocarcinoma cells, conc 1.5625 uM): 62%
viability at 72 h, 3.125 uM ([3]; SKOV-3 ovarian adenocarcinoma cells, conc 3.125 uM): 59.9%
viability at 72 h, 6.25 uM ([3]; SKOV-3 ovarian adenocarcinoma cells, conc 6.25 uM): 61.9%
viability at 72 h, 9.53674e-05 uM ([4]; conc 9.53674e-5 uM): 96.8%
viability at 72 h, 0.000190735 uM ([4]; conc 0.000190735 uM): 92.7%
viability at 72 h, 0.00038147 uM ([4]; conc 0.00038147 uM): 98.8%
viability at 72 h, 0.000762939 uM ([4]; conc 0.000762939 uM): 94.4%
viability at 72 h, 0.00152588 uM ([4]; conc 0.00152588 uM): 97.9%
viability at 72 h, 0.00305176 uM ([4]; conc 0.00305176 uM): 90.7%
viability at 72 h, 0.00610352 uM ([4]; conc 0.00610352 uM): 100%
viability at 72 h, 0.012207 uM ([4]; conc 0.012207 uM): 86%
viability at 72 h, 0.0244141 uM ([4]; conc 0.0244141 uM): 90.4%
viability at 72 h, 0.0488281 uM ([4]; conc 0.0488281 uM): 80.8%
viability at 72 h, 0.0976562 uM ([4]; conc 0.0976562 uM): 78.6%
viability at 72 h, 0.195312 uM ([4]; conc 0.195312 uM): 68.6%
viability at 72 h, 0.390625 uM ([4]; conc 0.390625 uM): 71.6%
viability at 72 h, 0.78125 uM ([4]; conc 0.78125 uM): 67.7%
viability at 72 h, 1.5625 uM ([4]; conc 1.5625 uM): 70.1%
viability at 72 h, 3.125 uM ([4]; conc 3.125 uM): 60.8%
viability at 72 h, 6.25 uM ([4]; conc 6.25 uM): 67.3%
viability at 72 h, 12.5 uM ([4]; conc 12.5 uM): 66.3%
viability at 72 h, 25 uM ([4]; conc 25 uM): 64.4%
